Source: US20220267329A1, “Dihydro-Spiro[Indoline-3:1'-Isoquinolin]-2-Ones and Their Analogues and Derivatives and Methods of Treating Cancer and Other Diseases” (The University of Buea, priority 2019, published 2022)

System: EMT6 breast cancer cell line
Assay: Antiproliferative screening on EMT6 cancer cells
Type: cell-based
Conditions: 100 μM
Experimental: Representative compounds were screened tested for antiproliferative activity on the EMT6 breast cancer cell line. Screening was carried out according to published procedures (Zeng et al., 2014). In this screen, compounds were tested at 100 μM concentration.

Which “inhibition of EMT6 cell proliferation” value does the source give for O=C1N(Cc2ccc(Br)cc2)c2ccccc2C12NCCc1cc(O)ccc12 (stereo not shown) [Compound 2f, 1-(4-bromobenzyl)-6′-hydroxy-3′,4′-dihydro-2′H-spiro[indoline-3,1′-isoquinolin]-2-one] here?
Its value is “as much as fifty percent”.

Same assay, conditions: 100 μM; no ligand = 100

O=C1N(Cc2ccc(F)cc2)c2ccccc2C12NCCc1cc(O)ccc12 (stereo not shown) [Compound 2d, 1-(4-Fluorobenzyl)-6′-hydroxy-3′,4′-dihydro-2′H-spiro[indolline-3,1′-isoquinolin]-2-one] was tested. Which “EMT6 cell proliferation (%)” value did it give?
The value was 123.61%.

Same assay, conditions: Mus musculus, EMT6, no ligand = 100, read-out: EMT6 cell proliferation (%)

Which activity at 100 µM does the source give for O=C1Nc2c(Br)cc(Br)cc2C12NCCc1cccc(O)c12 (stereo not shown) [Compound 1c, 5,7-Dibromo-8′-hydroxy-3′,4′-dihydro-2′H-spiro[indoline-3,1′-isoquinolin]-2-one] here?
Its activity at 100 µM is 87.6%.

With O=C1N(Cc2ccc(Cl)cc2)c2ccccc2C12NCCc1cc(O)ccc12 (stereo not shown) [Compound 2e, 1-(4-Chlorobenzyl)-6′-hydroxy-3′,4′-dihydro-2′H-spiro[indoline-3,1′-isoquinolin]-2-one] as the compound, how does the activity at 100 µM read?
Its activity at 100 µM is 72.2%.

How did the activity at 100 µM turn out when O=C1N(Cc2ccc(Br)cc2)c2ccccc2C12NCCc1cc(O)ccc12 (stereo not shown) [Compound 2f, 1-(4-bromobenzyl)-6′-hydroxy-3′,4′-dihydro-2′H-spiro[indoline-3,1′-isoquinolin]-2-one] was run?
Its activity at 100 µM is 41.4%.

For O=C1N(Cc2ccccc2[N+](=O)[O-])c2ccccc2C12NCCc1cc(O)ccc12 (stereo not shown) [Compound 2i, 6′-Hydroxy-1-(2-nitrobenzyl)-3′,4′-dihydro-2′H-spiro[indoline-3,1′-isoquinolin]-2-one], which activity at 100 µM is on record?
Its activity at 100 µM is 98.5%.

With O=C1N(Cc2ccc(F)cc2)c2ccc(Cl)cc2C12NCCc1cc(O)ccc12 (stereo not shown) [Compound 2k, 5-Chloro-1-(4-fluorobenzyl)-6′-hydroxy-3′,4′-dihydro-2′H-spiro[indoline-3,1′-isoquinolin]-2-one] as the compound, how does the activity at 100 µM read?
The activity at 100 µM was 131%.

Biological target: sphingosine-1-phosphate receptor 1 (S1PR1) (Homo sapiens, UniProt P21453)
Assay: Radioligand binding to sphingosine-1-phosphate receptor 1
Conditions: test compound 100 nM, 0.2 nM radioligand
Experimental: The binding of a representative group of compounds of this invention to sphingosine-1-phosphate receptor 1 (S1PR1) was determined by a published procedure (Rosenberg et al., 2016). In this assay, the test compound at 100 nM concentration was incubated with 0.2 nM radioligand. Active compounds or “hits” are defined as compounds that inhibit radioligand binding by 50% or more. […] This finding is significant because it establishes the 3′,4′-dihydro-2′H-[…]-2-one hybrid scaffold as an entirely new class of ligands for the sphingosine-1-phosphate receptors.

sphingosine-1-phosphate receptor 1 (S1PR1), sequence (P21453 whole entry, species assumed): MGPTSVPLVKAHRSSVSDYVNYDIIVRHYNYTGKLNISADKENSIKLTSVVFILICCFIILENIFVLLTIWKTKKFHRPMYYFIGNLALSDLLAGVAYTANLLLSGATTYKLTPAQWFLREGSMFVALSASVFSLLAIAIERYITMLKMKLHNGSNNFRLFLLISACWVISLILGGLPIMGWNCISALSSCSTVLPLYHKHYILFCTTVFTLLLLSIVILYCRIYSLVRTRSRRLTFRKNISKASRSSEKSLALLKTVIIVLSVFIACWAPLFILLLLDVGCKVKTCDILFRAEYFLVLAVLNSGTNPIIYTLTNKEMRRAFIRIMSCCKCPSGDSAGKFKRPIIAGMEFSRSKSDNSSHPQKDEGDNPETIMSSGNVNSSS

With O=C1Nc2ccc(Cl)cc2C12NCCc1cc(O)c(O)cc12 (stereo not shown) [Compound 3b, 5-Chloro-6′,7′-dibydroxy-3′,4′-dihydro-2′H-spiro[indoline-3,1′-isoquinolin]-2-one] as the compound, how does the “% INHIBITION of binding to the SIP1 Receptor” value read?
The value was 34.2%.

Same assay, conditions: test compound 100 nM, 0.2 nM radioligand; read-out: % INHIBITION of binding to the SIP1 Receptor

For O=C1N(Cc2ccc(F)cc2)c2ccc(Cl)cc2C12NCCc1cccc(O)c12 (stereo not shown) [Compound 1k, 5-Chloro-1-(4-fluorobenzyl)-8′-hydroxy-3′,4′-dihydro-2′H-spiro[indoline-3,1′-isoquinolin]-2-one], which inhibition at 0.1 µM is on record?
The inhibition at 0.1 µM was no less than 50%.

With O=C1N(Cc2ccc(Cl)cc2)c2ccc(Cl)cc2C12NCCc1cccc(O)c12 (stereo not shown) [Compound 1l, 5-Chloro-1-(4-chlorobenzyl)-8′-hydroxy-3′,4′-dihydro-2′H-spiro[indoline-3,1′-isoquinolin]-2-one] as the compound, how does the inhibition at 0.1 µM read?
The inhibition at 0.1 µM was no less than 50%.

COc1ccc2c(c1)CCNC21C(=O)Nc2c(Br)cc(Br)cc21 (stereo not shown) [Compound 4c, 5,7-Dibromo-6′-methoxy-3′,4′-dihydro-2′H-spiro[indoline-3,1′-isoquinolin]-2-one] was tested. Which inhibition at 0.1 µM did it give?
Its inhibition at 0.1 µM is 36.3%.

COc1ccc2c(c1)CCNC21C(=O)N(Cc2ccc(F)cc2)c2ccccc21 (stereo not shown) [Compound 4d, 6′-Methoxy-1-(4-fluorobenzyl)-3′,4′-dihydro-2′H-spiro[indoline-3,1′-isoquinolin]-2-one] was tested. Which inhibition at 0.1 µM did it give?
Its inhibition at 0.1 µM is 41.5%.

With COc1cc2c(cc1OC)C1(NCC2)C(=O)N(Cc2ccc(F)cc2)c2ccccc21 (stereo not shown) [Compound 5d, 1-(4-fluorobenzyl)-6′,7′-dimethoxy-3′,4′-dihydro-2′H-spiro[indoline-3,1′-isoquinolin]-2-one] as the compound, how does the inhibition at 0.1 µM read?
The inhibition at 0.1 µM was 40%.

COc1cc2c(c(OC)c1OC)C1(NCC2)C(=O)Nc2c(Br)cc(Br)cc21 (stereo not shown) [Compound 6c, 5,7-Dibromo-6′,7′,8′-trimethoxy-3′,4′-dihydro-2′H-spiro[indoline-3,1′-isoquinolin]-2-one] was tested. Which inhibition at 0.1 µM did it give?
The inhibition at 0.1 µM was 36.7%.

For COc1cc2c(c(OC)c1OC)C1(NCC2)C(=O)N(Cc2ccc(F)cc2)c2ccccc21 (stereo not shown) [Compound 6d, 1-(4-Fluorobenzyl)-6′,7′,8′-trimethoxy-3′,4′-dihydro-2′H-spiro[indoline-3,1′-isoquinolin]-2-one], which inhibition at 0.1 µM is on record?
The inhibition at 0.1 µM was no less than 50%.

With COc1cc2c(c(OC)c1OC)C1(NCC2)C(=O)N(Cc2ccc(C)cc2)c2ccccc21 (stereo not shown) [Compound 6e, 6′,7′,8′-Trimethoxy-1-(4-methylbenzyl)-3′,4′-dihydro-2′H-spiro[indoline-3,1′-isoquinolin]-2-one] as the compound, how does the inhibition at 0.1 µM read?
The inhibition at 0.1 µM was 31.3%.
